From patent publication US9028845B2, “Chimeric immunomodulatory compounds and methods of using the same-IV” (Dynavax Technologies Corporation, priority 2001, dated 2015)

Key:
[1] = system: CD19+ B cells; assay: Human B cell proliferation assay (3H-thymidine incorporation); conditions: for cpm1 / cpm2 / cpm3 / mean cpm / mean of both: B cells, Experiment B; for mean of both: mean of donors 121 and 194
Experimental: Purified human B cells from 2 donors were stimulated with 5 μg/ml P-6 or CIC for 96 h. Proliferation was assessed by ^3H-thymidine incorporation.
A CIC is considered to induce “little” human B cell proliferation if B cell proliferation in the presence of the CIC is between greater than 15 to about 30% of P-6.
Human PBMCs were isolated from heparanized blood from two normal subjects. Some PBMCs were held in reserve while the remainder was incubated with CD19+ MACS beads (Miltenyi Biotec). These cells were then passed through a magnet, separating the CD19+ B cells through positive selection. […] B cells were then cultured at 1×10^5/200 μl/well in 96-well round-bottomed plates. In some cases, PBMCs were also cultured, but at 2×10^5/200 μl/well. Cells were stimulated in triplicate with 2 μg/ml polynucleotide or CIC. The culture period was 48 hours at 37° C. At the end of the culture period, the plates were pulsed with ^3H-thymidine, 1 μCi/well, and incubated for an additional 8 hours. Then the plates were harvested using standard liquid scintillation techniques and data was collected in counts per minutes (cpm).

[2] = system: human PBMCs; assay: Human PBMC cytokine response assay (IFN-γ and IFN-α in cell-free medium by ELISA), with or without cPLGA; type: cell-based; conditions: for IFN-α mean / IFN-γ mean: mean of donors; for IFN-γ (pg/ml) 28065: donor 28065 (high background), 1000 = outside assay limits; for IFN-γ (pg/ml) 28065 / IFN-α (pg/ml) 28065 / IFN-α (pg/ml) 28066 / IFN-γ (pg/ml) 28066 / IFN-α (pg/ml) 28067 / IFN-γ (pg/ml) 28067 / IFN-α (pg/ml) 28068 / IFN-γ (pg/ml) 28068 / IFN-α (pg/ml) mean / IFN-γ (pg/ml) mean: 20 ug/ml, 24 h, + PLGA = premixed with 100 μg/ml cPLGA; for IFN-α (pg/ml) 28065: donor 28065; for IFN-α (pg/ml) 28066 / IFN-γ (pg/ml) 28066: donor 28066; for IFN-α (pg/ml) 28067 / IFN-γ (pg/ml) 28067: donor 28067; for IFN-α (pg/ml) 28068 / IFN-γ (pg/ml) 28068: donor 28068; for IFN-α (pg/ml) mean / IFN-γ (pg/ml) mean: mean of donors 28065-28068;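 as to IFN-α (pg/ml) mean: 20 µg/mL compound for 24 hours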;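 as to IFN-γ (pg/ml) mean: 20 µg/mL compound for 24 hours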

5′-ACGTTCG-3′-HEG-5′-ACGTTCG-3′-HEG-5′-AGATGAT-3′ [Compound C-24]
cpm1 ([1]; donor 121, 2 μg/ml): 8206 cpm
cpm2 ([1]; donor 121, 2 μg/ml): 6789 cpm
cpm3 ([1]; donor 121, 2 μg/ml): 2799 cpm
mean cpm ([1]; donor 121 mean, 2 μg/ml): 5931 cpm
cpm1 ([1]; donor 194, 2 μg/ml): 3979 cpm
cpm2 ([1]; donor 194, 2 μg/ml): 3407 cpm
cpm3 ([1]; donor 194, 2 μg/ml): 3468 cpm
mean cpm ([1]; donor 194 mean, 2 μg/ml): 3618 cpm
mean of both ([1]; 2 μg/ml): 4775 cpm
IFN-α ([2]; Table 10, donor 28042): 0 pg/mL
IFN-γ ([2]; Table 10, donor 28042): 148 pg/mL
IFN-α ([2]; Table 10, donor 28043): 0 pg/mL
IFN-γ ([2]; Table 10, donor 28043): 156 pg/mL
IFN-α ([2]; Table 10, donor 28044): 8 pg/mL
IFN-γ ([2]; Table 10, donor 28044): 312 pg/mL
IFN-α ([2]; Table 10, donor 28045): 0 pg/mL
IFN-γ ([2]; Table 10, donor 28045): 26 pg/mL
IFN-α mean ([2]; Table 10): 2 pg/mL
IFN-γ mean ([2]; Table 10): 161 pg/mL
IFN-γ (pg/ml) 28065 [2]: 337 pg/mL
IFN-α (pg/ml) 28065 [2]: 28 pg/mL
IFN-α (pg/ml) 28066 [2]: 0 pg/mL
IFN-γ (pg/ml) 28066 [2]: 2 pg/mL
IFN-α (pg/ml) 28067 [2]: 8 pg/mL
IFN-γ (pg/ml) 28067 [2]: 4 pg/mL
IFN-α (pg/ml) 28068 [2]: 67 pg/mL
IFN-γ (pg/ml) 28068 [2]: 116 pg/mL
IFN-α (pg/ml) mean [2]: 26 pg/mL
IFN-γ (pg/ml) mean [2]: 115 pg/mL

5′-TCGATTT-3′-HEG-5′-TCGATTT-3′-HEG-5′-TCGATTT-3′ [Compound C-74]
B cell proliferation (FIG. 11), in words ([1]; purified human B cells, 5 μg/ml, 96 h): induced moderate levels of B cell proliferation

5′-TCGTCG-3′-C4-5′-ACGTTCG-3′-C4-5′-AGATGAT-3′ [Compound C-17]
cpm1 ([1]; donor 121, 2 μg/ml): 27975 cpm
cpm2 ([1]; donor 121, 2 μg/ml): 30426 cpm
cpm3 ([1]; donor 121, 2 μg/ml): 9895 cpm
mean cpm ([1]; donor 121 mean, 2 μg/ml): 22765 cpm
cpm1 ([1]; donor 194, 2 μg/ml): 17467 cpm
cpm2 ([1]; donor 194, 2 μg/ml): 14890 cpm
cpm3 ([1]; donor 194, 2 μg/ml): 10518 cpm
mean cpm ([1]; donor 194 mean, 2 μg/ml): 14292 cpm
mean of both ([1]; 2 μg/ml): 18529 cpm
IFN-γ (pg/ml) 28065 [2]: 1000 pg/mL
IFN-α (pg/ml) 28065 [2]: 21 pg/mL
IFN-α (pg/ml) 28066 [2]: 0 pg/mL
IFN-γ (pg/ml) 28066 [2]: 6 pg/mL
IFN-α (pg/ml) 28067 [2]: 22 pg/mL
IFN-γ (pg/ml) 28067 [2]: 32 pg/mL
IFN-α (pg/ml) 28068 [2]: 95 pg/mL
IFN-γ (pg/ml) 28068 [2]: 459 pg/mL
IFN-α (pg/ml) mean [2]: 34 pg/mL
IFN-γ (pg/ml) mean [2]: 374 pg/mL

5′-TCGTCG-3′-C12-5′-ACGTTCG-3′-C12-5′-AGATGAT-3′ [Compound C-19]
B cell proliferation, in words ([1]; 2 μg/ml, 48 h plus 8 h 3H-thymidine pulse): inactive
cpm1 ([1]; donor 121, 2 μg/ml): 858 cpm
cpm2 ([1]; donor 121, 2 μg/ml): 1099 cpm
cpm3 ([1]; donor 121, 2 μg/ml): 926 cpm
mean cpm ([1]; donor 121 mean, 2 μg/ml): 961 cpm
cpm1 ([1]; donor 194, 2 μg/ml): 371 cpm
cpm2 ([1]; donor 194, 2 μg/ml): 403 cpm
cpm3 ([1]; donor 194, 2 μg/ml): 312 cpm
mean cpm ([1]; donor 194 mean, 2 μg/ml): 362 cpm
mean of both ([1]; 2 μg/ml): 662 cpm
IFN-γ (pg/ml) 28065 [2]: 84 pg/mL
IFN-α (pg/ml) 28065 [2]: 0 pg/mL
IFN-α (pg/ml) 28066 [2]: 1 pg/mL
IFN-γ (pg/ml) 28066 [2]: 8 pg/mL
IFN-α (pg/ml) 28067 [2]: 0 pg/mL
IFN-γ (pg/ml) 28067 [2]: 1 pg/mL
IFN-α (pg/ml) 28068 [2]: 13 pg/mL
IFN-γ (pg/ml) 28068 [2]: 2 pg/mL
IFN-α (pg/ml) mean [2]: 4 pg/mL
IFN-γ (pg/ml) mean [2]: 24 pg/mL
immunomodulatory activity (IFN-γ / IFN-α secretion), in words ([2]; used alone (no cPLGA)): did not show activity

5′-TCGTCG-3′-HEG-5′-TCGTCG-3′-HEG-5′-TCGTCG-3′ [Compound C-22]
cpm1 ([1]; donor 121, 2 μg/ml): 17147 cpm
cpm2 ([1]; donor 121, 2 μg/ml): 14014 cpm
cpm3 ([1]; donor 121, 2 μg/ml): 6844 cpm
mean cpm ([1]; donor 121 mean, 2 μg/ml): 12668 cpm
cpm1 ([1]; donor 194, 2 μg/ml): 6472 cpm
cpm2 ([1]; donor 194, 2 μg/ml): 5540 cpm
cpm3 ([1]; donor 194, 2 μg/ml): 3894 cpm
mean cpm ([1]; donor 194 mean, 2 μg/ml): 5302 cpm
mean of both ([1]; 2 μg/ml): 8985 cpm
IFN-α ([2]; Table 9, donor 28089): 0 pg/mL
IFN-γ ([2]; Table 9, donor 28089): 31 pg/mL
IFN-α ([2]; Table 9, donor 28090): 46 pg/mL
IFN-γ ([2]; Table 9, donor 28090): 15 pg/mL
IFN-α ([2]; Table 9, donor 28098): 97 pg/mL
IFN-γ ([2]; Table 9, donor 28098): 110 pg/mL
IFN-α ([2]; Table 9, donor 28099): 247 pg/mL
IFN-γ ([2]; Table 9, donor 28099): 91 pg/mL
IFN-α mean ([2]; Table 9): 97 pg/mL
IFN-γ mean ([2]; Table 9): 62 pg/mL
IFN-α ([2]; Table 10, donor 28042): 12 pg/mL
IFN-γ ([2]; Table 10, donor 28042): 206 pg/mL
IFN-α ([2]; Table 10, donor 28043): 18 pg/mL
IFN-γ ([2]; Table 10, donor 28043): 343 pg/mL
IFN-α ([2]; Table 10, donor 28044): 67 pg/mL
IFN-γ ([2]; Table 10, donor 28044): 736 pg/mL
IFN-α ([2]; Table 10, donor 28045): 30 pg/mL
IFN-γ ([2]; Table 10, donor 28045): 40 pg/mL
IFN-α mean ([2]; Table 10): 32 pg/mL
IFN-γ mean ([2]; Table 10): 331 pg/mL
activity when formulated with cPLGA, in words ([2]; formulated with cPLGA): induced considerable IFN-γ and IFN-α when formulated with cPLGA
IFN-γ induction, in words ([2]; used alone): induce IFN-γ when used alone

5′-TCGTCG-3′-HME-5′-ACGTTCG-3′-HME-5′-AGATGAT-3′ [Compound C-25]
cpm1 ([1]; donor 121, 2 μg/ml): 34360 cpm
cpm2 ([1]; donor 121, 2 μg/ml): 35016 cpm
cpm3 ([1]; donor 121, 2 μg/ml): 26480 cpm
mean cpm ([1]; donor 121 mean, 2 μg/ml): 31952 cpm
cpm1 ([1]; donor 194, 2 μg/ml): 16060 cpm
cpm2 ([1]; donor 194, 2 μg/ml): 19509 cpm
cpm3 ([1]; donor 194, 2 μg/ml): 17384 cpm
mean cpm ([1]; donor 194 mean, 2 μg/ml): 17651 cpm
mean of both ([1]; 2 μg/ml): 24802 cpm
IFN-γ (pg/ml) 28065 [2]: 541 pg/mL
IFN-α (pg/ml) 28065 [2]: 11 pg/mL
IFN-α (pg/ml) 28066 [2]: 0 pg/mL
IFN-γ (pg/ml) 28066 [2]: 6 pg/mL
IFN-α (pg/ml) 28067 [2]: 22 pg/mL
IFN-γ (pg/ml) 28067 [2]: 19 pg/mL
IFN-α (pg/ml) 28068 [2]: 79 pg/mL
IFN-γ (pg/ml) 28068 [2]: 337 pg/mL
IFN-α (pg/ml) mean [2]: 28 pg/mL
IFN-γ (pg/ml) mean [2]: 226 pg/mL
